This note sets out measurements from PubChem BioAssay AID588477 (NMMLSC, 2011).

The nature of test [1]: inhibitors of Bodipy-GTP binding across eight GTPases, SAR follow-up, selectivity assay for Cdc42 probe extension project, biochemical, round 1 SAR, Mg buffer, multiplex flow cytometry (AID 588477). The conditions noted are these: GST-GTPase beads, Cdc42 constitutively active. On the technique in general: A flow cytometer gives signals particle by particle.
Test [2] concerns the target Cdc42 wt. Described as above. To be noted: GST-GTPase beads.

The structures appear in SMILES notation. The source made the active and inactive calls.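 How the source made its calls: active means valid curve fit with half-effect dose at most 10 µM and total binding change across doses of 30 points or more; inactive means the rest.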

Broadly, the EC50 is the concentration giving half of the maximal effect. In the case of `COc1ccc(C2CC(c3ccccc3)=NN2c2ccc(S(N)(=O)=O)cc2)cc1` (stereo unspecified), the EC50 in test [1] was 3.69 µM; in test [2], 2.41 µM.
Regarding `NS(=O)(=O)c1ccc(N2N=C(c3ccccc3)CC2c2ccccc2)cc1` (stereo unspecified), in test [1] (at 100 µM (top of the series)), the “percent response (remaining binding)” value was “inactive”. The EC50 in test [2] was 7.26 µM.
Consider `O=C(C#Cc1ccccc1)c1cccc([N+](=O)[O-])c1`, for which the EC50 in test [1] was 2.68 µM. In addition, in test [2] (at 100 µM (top of the series)), the “percent response (remaining binding)” value was “inactive”.
